Experimental data as given in patent publication US20120022056A1, “FUSED TRICYCLIC DERIVATIVES FOR THE TREATMENT OF PSYCHOTIC DISORDERS” (priority 2005, published 2012).
Where a name gives a salt, the structure may show the parent alone.

Target: T1, 5-HT1A receptor (Homo sapiens, UniProt P08908)
T1 construct: expressed in transfected cells; host or cells: HEK293 (membranes)
T1 sequence (P08908 1-422): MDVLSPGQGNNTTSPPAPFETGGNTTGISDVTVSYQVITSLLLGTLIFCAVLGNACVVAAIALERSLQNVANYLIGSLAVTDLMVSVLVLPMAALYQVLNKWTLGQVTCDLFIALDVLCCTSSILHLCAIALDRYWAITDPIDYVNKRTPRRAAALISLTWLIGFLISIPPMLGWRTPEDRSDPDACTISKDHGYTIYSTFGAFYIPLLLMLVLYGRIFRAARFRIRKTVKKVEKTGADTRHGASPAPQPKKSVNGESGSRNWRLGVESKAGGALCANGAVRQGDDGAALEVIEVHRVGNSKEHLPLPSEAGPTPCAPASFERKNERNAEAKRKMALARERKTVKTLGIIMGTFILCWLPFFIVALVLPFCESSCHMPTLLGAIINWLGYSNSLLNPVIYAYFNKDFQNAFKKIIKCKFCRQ
Experiment: GTPγS binding functional potency assay (primary screen), 5-HT1A
Format: biochemical
Conditions: assay a), membranes of HEK293 cells transfected with human 5-HT1A, read-out: fpKi at the 5-HT1A receptor
Procedure: a) Functional Potency—Primary Screen
The functional potency may be determined by the following GTPγS binding protocol. Cells used in the study are CHO Cells and Human Embryo Kidney (HEK293). Cells were transfected with DNA coding for human receptors as follows: HEK293—5-HT1A; CHO—5-HT1B; and CH—5-HT1D. Test compounds were initially dissolved in 100% dimethyl sulfoxide to a concentration of 10 mM. Serial dilution of the test compounds in 100% dimethyl sulphoxide was carried out using a Biomek FX in 384 well assay plates, so that the final top concentration of test compound is 3 μM in the assay. Add the test compound at 1.0% total assay volume (TAV) to a solid, white, 384 well assay plate (Costar). Add 50% TAV of precoupled (for 90 mins @ RT) membranes (5 ug/well), Wheatgerm Agglutinin Polystyrene Scintillation Proximity Assay beads (RPNQ0260 Amersham International) (0.25 mg/well) in 20 mM HEPES pH 7.4, 100 mM NaCl, 3 mM MgCl2 and 10 μM GDP. The third addition was a 20% TAV addition of either buffer, agonist format, or EC80 final assay concentration (FAC) of agonist, 5HT antagonist format, prepared in assay buffer. The assay was started by the addition of 29% TAV of GTPγS 0.38 nM FAC. After all additions assay plates were incubated at RT for 2-3 hours. Assay plates were counted on a Viewlux, 613/55 filter for 5 mins. Assay plates were read between 2-6 hours after the final addition.

Ki, < 10 nM:
CNC(=O)c1ncn2c1CCc1c(CCN3CCC(c4cccc5nc(C)ccc45)CC3)cccc1-2 [Example 83, N-methyl-6-{2-[4-(2-methyl-5-quinolinyl)-1-piperidinyl]ethyl}-4,5-dihydroimidazo[1,5-a]quinoline-3-carboxamide dihydrochloride]
CNC(=O)c1ncn2c1ccc1c(CCN3CCC(c4cccc5nc(C)ccc45)CC3)cccc12 [Example 89, N-methyl-6-{2-[4-(2-methyl-5-quinolinyl)-1-piperidinyl]ethyl}imidazo[1,5-a]quinoline-3-carboxamide dihydrochloride]
Cc1ccc2c(C3CCN(CCc4cccc5c4ccc4c(C(N)=O)ncn45)CC3)cccc2n1 [Example 91, 6-{2-[4-(2-methyl-5-quinolinyl)-1-piperidinyl]ethyl}imidazo[1,5-a]quinoline-3-carboxamide dihydrochloride]
Cc1ccc2c(N3CCN(CCc4cccc5c4ccc4nnnn45)[C@H](C)C3)cccc2n1 [Example 94, 6-{2-[(2R)-2-methyl-4-(2-methyl-5-quinolinyl)-1-piperazinyl]ethyl}tetrazolo[1,5-a]quinoline dihydrochloride]
CCOC(=O)c1nnn2c1ccc1c(CCN3CCN(c4cccc5nc(C)ccc45)CC3)cccc12 [Example 97, ethyl 6-{2-[4-(2-methyl-5-quinolinyl)-1-piperazinyl]ethyl}[1,2,3]triazolo[1,5-a]quinoline-3-carboxylate dihydrochloride]
Cc1ccc2c(N3CCN(CCc4cccc5c4ccc4c(-c6nc(C)no6)ncn45)[C@H](C)C3)cccc2n1 [Example 105, 6-{2-[(2R)-2-methyl-4-(2-methyl-5-quinolinyl)-1-piperazinyl]ethyl}-3-(3-methyl-1,2,4-oxadiazol-5-yl)imidazo[1,5-a]quinoline dihydrochloride]
Cc1ccc2c(C3CCN(CCc4cccc5c4CCc4c(C(N)=O)ncn4-5)CC3)cccc2n1 [Example 122, 6-{2-[4-(2-methyl-5-quinolinyl)-1-piperidinyl]ethyl}-4,5-dihydroimidazo[1,5-a]quinoline-3-carboxamide dihydrochloride]
CNC(=O)c1ncn2c1COc1c-2ccc(C)c1CCN1CCC(c2cccc3nc(C)ccc23)CC1 [Example 124, N,7-dimethyl-6-{2-[4-(2-methyl-5-quinolinyl)-1-piperidinyl]ethyl}-4H-imidazo[5,1-c][1,4]benzoxazine-3-carboxamide dihydrochloride]
Cc1ccc2c(C3CCN(CCc4c(C)ccc5c4OCc4c(C(N)=O)ncn4-5)CC3)cccc2n1 [Example 125, 7-methyl-6-{2-[4-(2-methyl-5-quinolinyl)-1-piperidinyl]ethyl}-4H-imidazo[5,1-c][1,4]benzoxazine-3-carboxamide dihydrochloride]
